Measurements reported in patent US8703704B2, “Method for growing, restoring and regenerating hair” (priority 2009, dated 2014).
Entries after “also recorded” stand apart in the source; their conditions may differ.

Experiments:
[1] = tested on: wounds caused by the surgical operation (laser removal of lentigo); experiment: ANP applied to facial wounds caused by laser surgery (left half treated, right half as comparison); format: in vivo, human
Protocol: In a patient who received operation for removing lentigo on the entire facial surface by the laser method, ANP was administered at a dose of 0.1 to 5 μg (with an isotonic aqueous solution at a dose of 0.01 ml to 0.5 ml) twice a day to wounds caused by the surgical operation or areas around the wounds on the left half of the patient's face, and the result was compared to wounds on the right side half of the patient's face. […] Furthermore, tension of skin was observed more clearly in the left side facial area as a whole as compared to that in the right side, and smoothness of the facial skin in the left side was improved.

[2] = tested on: cardiac muscle of a patient suffering from the dilated cardiomyopathy; experiment: Intermittent intravenous ANP in a patient with dilated cardiomyopathy; format: in vivo, human
Protocol: A small quantity of ANP was administered intermittently, namely once for a week by 1 mg over 4 hours by means of intravenous injection to a patient diagnosed as suffering from the dilated cardiomyopathy who was […]. The contraction percentage was 19% before start of administration of ANP, but was improved up to 40% in 6 months, and also the systemic arterial capacity, which was NYHA IV before start of the treatment, was improved up to NYHA II. […] By continuing administration of ANP once a week for two years, the […] was improved up to NYHA I, and although the patient's prognosis was regarded as 6 months by the conventional therapy, it is now determined that the patient will be able to enjoy the ordinary domestic life for 10 years or more. The patient's cardiac muscle thickness and contractile activity are at present quite good.

[3] = tested on: skin of hands (cracked and rough); experiment: ANP applied on hands with cracked and rough skin; format: in vivo, human; settings: 0.5 to 5 μg twice a day on backs and palms of both hands
Protocol: The ANP according to the present invention was applied on both the backs and palms of both hands of a ceramic artist who touched water and mud every day at a dose of 0.5 to 5 μg twice a day.

[4] = tested on: Cyclin D1; experiment: RT-PCR expression of Cyclin D1 in HaCat; format: cell-based, human; settings: 1 μM
Protocol: (§1) Human normal cornified cell stock HaCat was seeded in a 3.5 cm falcon flat bottom […] dish at the seeding rate of 2×10^4 cells/dish. In 3 days, ANP was added by 1 μM, and RNA was recovered using RNeasy plus (QUIAGEN) from the cells at the time points of 0 minute, 30 minutes, and 4 hours after start of the treatment. cDNA was synthesized using Superscript III (Invitrogen) from 0.2 μg of RNA, and the synthesized cDNA was used as a template for PCR. Using GAPDH as an internal control, the sample was subjected to PCR and then agarose electrophoresis, then stained by Cyber Safe (Invitrogen), the electrophoresis image was photographed on a UV transilluminator with a digital camera (Olympus C5060WZ), and thickness of each band was measured with the Image J (for densitometer analysis). […] Expression of BMP-2 increased by 1.5 times as compared to samples not treated in 4 hours after treatment with ANP.

[5] = tested on: Human normal cornified cell stock HaCat; experiment: Wound (scratch) test on confluent HaCat; format: cell-based
Protocol: Human normal cornified cell stock HaCat was seeded in a falcon flat bottom 6-well dish at the seeding rate of 2×10^5 cells/dish. In 3 days, the cells in the confluent state were injured with a pipetteman chip, and the cells were washed with PBS twice, and then ANP was added so that the content was 1 μM (in OptiMEM serum free). In 24 hours, behaviors of the cells were observed (FIG. 4).

[6] = tested on: KRT15; experiment: RT-PCR expression of KRT15 in HaCat; format: cell-based, human; settings: 1 μM; 30 minutes after start of treatment; transitional
Protocol: as §1

[7] = tested on: head hairs of patients of thin hairs; experiment: ANP applied on head skin of patients of thin hairs; format: in vivo, human
Protocol: ANP was applied by 0.5 to 5 μg to two patients of thin hairs […], after the hairs were cleaned, twice a day (together with 0.5 ml of an isotonic aqueous solution) directly on the patients' head skin. States of pores and hairs and total state of head hairs after administration of ANP were observed and compared to those before start of administration of ANP. Observation of the states was also performed in 40 days and in 60 days after start of ANP administration for assessment. […] In 2 to 3 weeks after start of administration of ANP, it was observed that elasticity and solidity increased in total hairs on the patients' heads. In one month after start of ANP administration, the sites on each patient's head where the head skin had been visible became less visible. The retarded front line of head hairs again moved frontward, and new hairs grew up to the length of 5 to 7 mm. Furthermore, a second short hair was discovered at the side of a long grown hair. […] Black spiral hairs were observed under the pore portions. Just after the spiral hairs came out from under the head skin, the hairs kept the spiral state, but when the hairs become straight, the length was in the range from 3 to 4 mm.

[8] = tested on: Human normal cornified cell stock HaCat; experiment: Colony formation of HaCat in drops; format: cell-based; settings: 1 μM ANP
Protocol: In the case of 10 μl drop, formation of any colony was not observed.

For CC[C@H](C)[C@@H]1NC(=O)[C@H](CCCNC(=N)N)NC(=O)[C@H](CC(=O)O)NC(=O)[C@H](CCSC)NC(=O)[C@H](CCCNC(=N)N)NC(=O)CNC(=O)CNC(=O)[C@H](Cc2ccccc2)NC(=O)[C@@H](NC(=O)[C@H](CO)NC(=O)[C@H](CO)NC(=O)[C@H](CCCNC(=N)N)NC(=O)[C@H](CCCNC(=N)N)NC(=O)[C@H](CC(C)C)NC(=O)[C@@H](N)CO)CSSC[C@@H](C(=O)N[C@@H](CC(N)=O)C(=O)N[C@@H](CO)C(=O)N[C@@H](Cc2ccccc2)C(=O)N[C@@H](CCCNC(=N)N)C(=O)N[C@@H](Cc2ccc(O)cc2)C(=O)O)NC(=O)CNC(=O)[C@H](CC(C)C)NC(=O)CNC(=O)[C@H](CO)NC(=O)[C@H](CCC(N)=O)NC(=O)[C@H](C)NC(=O)CNC1=O [ANP, atrial natriuretic peptide], the closure of wounds ([1]; 0.1 to 5 μg twice a day, one week after start, versus untreated right side) was “most of the wounds were closed”, the restoration of wounds ([1]; ANP area compared to control area / no ANP) was “advances far quickly; also recorded: more quickly restored” and the “smoothness of the facial skin” value ([1]; left (treated) side) was “improved”. The surgical traces ([1]; sites where ANP was administered) was “less remarkable”, the “reformation of subcutaneous tissue” value ([1]; treated left half versus untreated right half of face) was “clearly earlier” and the contraction percentage ([2]; 1 mg i.v. over 4 hours once a week, in 6 months, 19% before start) was 40%. The “NYHA class after continued administration” value ([2]; ANP once a week for two years) was “NYHA I”, the “cardiac muscle thickness (ultrasonic diagnosis)” value ([2]; during ANP treatment) was “increased” and the NYHA functional class ([2]; in 6 months, NYHA IV before start of the treatment) was “NYHA II”. The “time the patient will be able to enjoy ordinary domestic life (prognosis)” value ([2]; prognosis was 6 months by the conventional therapy) was at least 10 years, the “cracked and rough skin symptoms” value [3] was “remarkably improved” and the “expression rate of Cyclin D1 relative to the original level” value [4] was “⅓ and around ⅓”. The cell motility ([5]; 1 μM) was “rose”, the “behaviour of cells at wound edges” value ([5]; 1 μM in OptiMEM serum free, 24 hours) was “many rounding-like sites are observed; also recorded: rounding-like state was observed at many sites” and the “increase of expression rate of KRT15” value [6] was “about 20%”. For the same compound, the “growth of downy hairs on the frontal region” value ([7]; 0.5 to 5 μg twice a day, one week after start) was “growth of hairs like downy hairs was observed”, the “elasticity and solidity of total hairs” value ([7]; 2 to 3 weeks after start) was “increased” and the “thickness of head hairs” value ([7]; 40 days after start) was “thickness increased”. The “visibility of head skin” value ([7]; 60 days after start) was “hardly visible” and the “capability of forming colonies” value [8] was “form colonies; also recorded: colonies formed”.
